# In PubChem BioAssay (NCI):
#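 In this assay, cells in 96-well plates receive the compound at five concentrations for 48 hours. Endpoints are linearly interpolated between the surrounding concentrations. GI50: concentration for 50% inhibition of growth. TGI: total growth inhibition.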
# How the values were obtained:
# Assay in all cases: NCI-60 cell line screen, 48 h
# [1] = system: HCT-15 colon
# [2] = system: NCI-H522 lung
# [3] = system: SK-OV-3 ovarian
# [4] = system: SN12C renal
# [5] = system: COLO 205 colon
# [6] = system: SK-MEL-5 melanoma
# [7] = system: EKVX NSCLC
# [8] = system: U251 CNS
# [9] = system: CCRF-CEM leukemia
# [10] = system: SNB-75 CNS
Compound,TGI [1] [µM],TGI [2] [µM],TGI [3] [µM],TGI [4] [µM],TGI [5] [µM],TGI [6] [µM],TGI [7] [µM],TGI [8] [µM],TGI [9] [µM],TGI [10] [µM],GI50 [1] [µM],GI50 [2] [µM],GI50 [3] [µM],GI50 [4] [µM],GI50 [5] [µM],GI50 [6] [µM],GI50 [7] [µM],GI50 [8] [µM],GI50 [9] [µM],GI50 [10] [µM]
COc1ccc(C2=[S+]C(c3ccccc3)(c3ccccc3)c3ccccc32)cc1,54.6,79.8,> 100,37.1,31.3,31.5,> 100,45.3,88.9,91.1,–,–,–,–,–,–,–,–,–,–
O=c1nc2ccc([N+](=O)[O-])cc2[n+]([O-])[nH]1,> 100,> 100,> 100,> 100,> 100,> 100,> 100,> 100,> 100,> 100,–,–,–,–,–,–,–,–,–,–
C/C(=N\NC(=O)c1ccc(Cl)cc1)c1nc2ncccc2[nH]1,> 100,58.3,60.5,> 100,96.3,55.6,> 100,> 100,> 100,17.9,–,–,–,–,–,–,–,–,–,–
COc1cc(-c2ccc(N=Nc3ccc4c(S(=O)(=O)O)cc(S(=O)(=O)O)c(N)c4c3O)c(OC)c2)ccc1N=Nc1ccc2c(S(=O)(=O)O)cc(S(=O)(=O)O)c(N)c2c1O,> 100,> 100,> 100,> 100,> 100,> 100,> 100,> 100,> 100,> 100,–,–,–,–,–,–,–,–,–,–
N#[N+]c1c([O-])c2ccccc2c2ccccc12,> 100,85,> 100,> 100,> 100,35.4,72.8,> 100,> 100,82.9,–,–,–,–,–,–,–,–,–,–
CCOC(=O)NC(Nc1cc(Cl)ccc1OC)(C(F)(F)F)C(F)(F)F,> 100,> 100,> 100,> 100,–,> 100,> 100,> 100,> 100,> 100,–,–,–,–,–,–,–,–,–,–
c1ccc2c(c1)NCc1cc3ccccc3nc1O2,> 100,> 100,> 100,> 100,> 100,> 100,> 100,> 100,> 100,> 100,–,–,–,–,–,–,–,–,–,–
CCOC(=O)/C=C/c1c(C)[nH]c(=O)[nH]c1=O,> 250,> 250,> 141,> 250,> 250,> 250,> 250,> 250,> 250,> 250,–,–,–,–,–,–,–,–,–,–
O=C1CCC[C@H]2O[C@@H](COC(=O)c3ccccc3)C[C@H]2O1,> 100,–,> 100,> 100,> 100,> 100,> 100,> 100,> 100,> 100,–,–,–,–,–,–,–,–,–,–
c1cc2c3c(c1)c1cc4c(cc1c[n+]3CC2)OCO4,> 225,10.1,97.2,9.01,19.9,9.08,14.4,18.8,35.8,8.09,–,–,–,–,–,–,–,–,–,–
Cc1ccc(Cl)cc1N=NC(=O)NNc1cc(Cl)ccc1C,95.4,27.6,49.5,80.8,41,29.1,–,59.6,54.4,36.3,–,–,–,–,–,–,–,–,–,–
O=C1C(CO)=C[C@H](O)[C@H]2O[C@@H]12,278,164,561,265,209,389,215,381,418,561,–,–,–,–,–,–,–,–,–,–
c1ccc2c(c1)c1ccccc1n2Cn1c2ccccc2c2ccccc21,> 100,> 100,–,> 100,–,> 100,> 100,> 100,> 100,> 100,–,–,–,–,–,–,–,–,–,–
Cc1cn(-c2cccc(NC(=O)c3ccc(C)c(Nc4nccc(-c5cccnc5)n4)c3)c2)cn1,8.26,3.07,3.52,4.7,3.65,7.46,6,3.39,10.9,2.97,2.73,1.44,2.03,2.1,2.09,2.16,2.16,1.69,1.23,1.59
COc1cccc2c1C(=O)c1c(O)c3c(c(O)c1C2=O)C[C@@](O)(C(=O)COC(=O)c1ccccc1)C[C@@H]3OC1CC(N)C(O)C(C)O1 (some centres undefined),1.76,–,1.44,1.12,–,0.712,–,0.273,0.334,0.738,0.451,–,0.264,0.0936,–,0.2,–,0.113,0.0427,0.0762
O=C(NN1C(=O)C(Cl)C1c1cccc([N+](=O)[O-])c1)c1ccccc1O (centres undefined),–,> 100,> 100,> 100,> 100,> 100,> 100,> 100,> 100,> 100,–,–,–,–,–,–,–,–,–,–
Cc1cc(N/N=C/c2nc(-c3ccc(Cl)cc3)oc2C)c2cc(Br)ccc2n1,4.42,4.51,18.3,4.38,10.6,23.9,28.1,3.29,–,–,1.79,2.02,5.84,2.05,2.86,11.7,14.4,1.73,–,–
C/C(=N\NC(=S)N1CCC(N2CCCCC2)CC1)c1ccccn1,6.13,0.646,11.6,8.17,9.95,8.22,12.1,9.86,34.3,11.2,–,–,–,–,–,–,–,–,–,–
